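48-hour exposure; five concentrations; linearly interpolated endpoints. At the TGI there is no net growth.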
What was measured:
Experiment in all cases: NCI-60 cell line screen, 48 h
RXF 393 renal = system: RXF 393 renal
IGROV1 ovarian = system: IGROV1 ovarian
SF-268 CNS = system: SF-268 CNS
HCT-15 colon = system: HCT-15 colon
UACC-62 melanoma = system: UACC-62 melanoma
MDA-N = system: MDA-N
SW-620 colon = system: SW-620 colon
COLO 205 colon = system: COLO 205 colon
SF-539 CNS = system: SF-539 CNS
ACHN renal = system: ACHN renal
HCT-116 colon = system: HCT-116 colon
K-562 leukemia = system: K-562 leukemia
HS 578T breast = system: HS 578T breast
SNB-75 CNS = system: SNB-75 CNS
T-47D breast = system: T-47D breast
MOLT-4 leukemia = system: MOLT-4 leukemia
PC-3 prostate = system: PC-3 prostate
NCI/ADR-RES ovarian = system: NCI/ADR-RES ovarian

Structure (SMILES) | TGI (RXF 393 renal) [µM] | TGI (IGROV1 ovarian) [µM] | TGI (SF-268 CNS) [µM] | TGI (HCT-15 colon) [µM] | TGI (UACC-62 melanoma) [µM] | TGI (MDA-N) [µM] | TGI (SW-620 colon) [µM] | TGI (COLO 205 colon) [µM] | TGI (SF-539 CNS) [µM] | TGI (ACHN renal) [µM] | TGI (HCT-116 colon) [µM] | TGI (K-562 leukemia) [µM] | TGI (HS 578T breast) [µM] | TGI (SNB-75 CNS) [µM] | TGI (T-47D breast) [µM] | TGI (MOLT-4 leukemia) [µM] | TGI (PC-3 prostate) [µM] | TGI (NCI/ADR-RES ovarian) [µM]
N#CC(C#N)=C(N)/C(C#N)=C/c1cc(O)c(O)c(Br)c1 | > 100 | > 100 | > 100 | > 100 | > 100 | > 100 | > 100 | > 100 | > 100 | > 100 | > 100 | > 100 | > 100 | > 100 | > 100 | > 100 | > 100 | > 100
N=C(N)n1[nH]c2c(c1=O)CCCC2 | > 100 | > 100 | > 100 | > 100 | > 100 | > 100 | > 100 | > 100 | > 100 | > 100 | > 100 | > 100 | > 100 | 99.7 | > 100 | > 100 | > 100 | > 100
O=C(Nc1ccccc1C(=O)O)/C(=C/c1ccccc1)NC(=O)c1ccccc1 | > 100 | > 100 | > 100 | > 100 | > 100 | > 100 | > 100 | > 100 | > 100 | > 100 | > 100 | > 100 | > 100 | > 100 | > 100 | > 100 | > 100 | > 100
CCN(CC)Cc1nc(C2CCC([N+](=O)[O-])O2)no1 (stereo unspecified) | 86.8 | > 100 | 79.6 | 38.1 | 30.7 | 37.5 | 35.9 | 30.3 | 49 | > 100 | 60.4 | > 100 | 82.4 | 96.6 | 98 | > 100 | > 100 | 76.3
CCOC(=O)C(=O)N=Nc1nc2c(O)c3ccccc3c(O)c2s1 | 9.55 | 14.6 | 10.8 | 6.49 | 11.5 | 3.2 | 5.7 | 25.2 | 5.13 | 6.74 | 5.96 | 12.7 | 10.5 | 9.02 | 35.8 | > 100 | 27.1 | 4.89
Cc1ccc(S(=O)(=O)Oc2ccc(OS(=O)(=O)c3ccc(C)cc3)c3c2C(=O)c2ccccc2C3=O)cc1 | 68.6 | > 100 | > 100 | > 100 | > 100 | > 100 | > 100 | > 100 | > 100 | > 100 | > 100 | > 100 | > 100 | 64.1 | > 100 | > 100 | > 100 | > 100
N#CC1CCN2N=C(c3ccccc3)SC12c1ccccc1 (stereo unspecified) | > 100 | > 100 | > 100 | > 100 | 29.5 | > 100 | > 100 | > 100 | > 100 | > 100 | > 100 | > 100 | > 100 | > 100 | > 100 | 83.4 | > 100 | > 100
[N-]=[N+]=Nc1c([N+](=O)[O-])c(Cl)nc2ccccc12 | 3.28 | 4.04 | 11.7 | 3.77 | 9.07 | 6.56 | 1.73 | 3.29 | 9.74 | 3.22 | 3.09 | 1.74 | 8.64 | 22.1 | 4.82 | 0.89 | 4.75 | 6.3
COC(=O)/C=C1/N=C(N(C)/N=C/c2ccccc2)NC1=O | > 100 | > 100 | > 100 | > 100 | > 100 | > 100 | > 100 | > 100 | > 100 |  | > 100 | > 100 | > 100 | > 100 | > 100 | > 100 | > 100 | > 100
CC(C)(C)OC(=O)NC(Cc1cnc[nH]1)C(=O)N1CCCC1C(N)=O (stereo unspecified) | 92.3 | > 100 | > 100 | > 100 | > 100 | > 100 | > 100 | > 100 | > 100 | > 100 | > 100 | > 100 | > 100 | > 100 | > 100 | > 100 | > 100 | > 100
COC(=O)NN=C(c1ccc(Cl)cc1)c1ccc(Cl)cc1 | > 100 | > 100 | > 100 | > 100 | > 100 | > 100 | > 100 | > 100 | > 100 |  | > 100 | > 100 | > 100 | > 100 | > 100 | > 100 | > 100 | > 100
CCCN(CCCCN1C(=O)c2ccccc2C1=O)CC1COc2ccccc2O1 (stereo unspecified) | > 100 | > 100 | > 100 | > 100 | > 100 | > 100 | > 100 | > 100 | > 100 | > 100 | > 100 | > 100 | > 100 | > 100 | > 100 | 66.5 | > 100 | > 100
CCN(CC)C(=S)SC1CCOP(=O)(N(CCCl)CCCl)N1C (stereo unspecified) | 76.1 | > 53.1 | 98.6 | 91.5 | 17.3 | > 100 | > 34.9 |  | 56.6 | > 67.5 | > 48.5 | 49.9 | > 100 | > 100 | > 100 | 49.2 | > 100 | > 100

— PubChem BioAssay (NCI)
